Patent US7439251B2, “Methods and compositions for treatment of central and peripheral nervous system disorders and novel compounds useful therefor” (Israel Institute for Biological Research, priority 2002, dated 2008)
“Also recorded” adds a separate entry of the source. Like-named read-outs stand apart in the source and are kept apart here.

Assays:
[1] = Aging microcebes, chronic treatment; assay type: in vivo; conditions: chronic treatment for 18 months
Text: Aging microcebes show similar cognitive deficits and cerebral lesions to those observed in aging humans and in AD patients. Thus this is a good animal model for AD, […] major hallmarks in AD {plaques (Aβ), paired helical filaments (hyperphophorylated and aggregated τ) and cognitive dysfunction}.

[2] = Stability of 10% w/w AF150(S) in paraffin oil; assay type: physicochemical
Experimental: In another embodiment of the invention, AF150(S) is provided in pharmaceutical acceptable paraffin oil. […] Ph) was examined at 40° C. under air or nitrogen atmosphere, in the presence or absence tocopherol. Samples were analyzed after two months storage. TLC, […] and GC were used to detect and determine the quantity of possible degradation product(s). Color changes were determined in comparison with Paraffin oil with or without tocopherol under the same conditions. AF150(S) was stable in the paraffin oil formulation.

[3] = system: ApoE; test: ApoE synthesis and secretion in rat primary type 1 astrocytes; assay type: cell-based; conditions: 96 hrs; 0.1 nM
Experimental: Primary cultures of type 1 astrocytes were derived from the cortex of Sprague Dawley rats. The compounds tested were dissolved in the culture media and added to cells for 24, 48, 72 and 96 hrs. Media was then removed and kept frozen until ApoE protein levels were evaluated by immunoblot analysis as described in Poirier et al Neuroscience 55: 81-90 (1993).

[4] = Working memory (MWM) in ischemic rats; assay type: in vivo, rat; conditions: 0.5 mg/kg po chronic, vs DDW
Experimental: This was done by a bilateral carotid artery occlusion in Sprague Dawley rats: […] Ischemia was induced in 21 rats whereas the other 21 rats served as sham controls. Under pentobarbital anasthesia (30 mg/kg, ip), sodium nitropruside 4.8 mg/kg/hr) was infused through a cannula implanted in the tail vein, for a period of 25 min. […] Immediately afterwards 1.8 mEq sodium bicarbonate solution was administerd ip in order to minimize systemic acidosis. The sham operated rats were anesthetized as the ischemic rats and were infused with saline. Their carotid arteries were exposed but were not subject to carotid clamping. […] Animals were allowed to recover for 3 weeks prior to behavioral testing. […] The evaluation of the animals was done using the working-memory matching-to-sample paradigm in the MWM. […] REL and RPL reflect the relative saving in performance from trial no 1 to trial no 2. REL and RPL were analyzed by a 3-way ANOVA (2×2×3), with one repeated variable (weeks) and two non-repeated variables (Operation-ischemia/sham-operated and Treatment-AF150(S)/DDW).

[5] = system: Isolated Guinea Pig Right Atrium; test: Isolated guinea pig right atrium
Experimental: (§1) • 1. Astemizole (human ether-a-go-go related gene (HERG) Channel) Binding Assay. […] Isolated Guinea Pig Right Atrium (atrial fibrillation). […] Effects of AF292 (dose 5 mg/kg orally) on cardiac electrophysiological, cardio-haemodynamic in instrumented, awake dogs. Healthy trained and chronically instrumented female Beagle dogs of varying age and ranging in body weight from 9.4 to 12 kg, were used for recording of the cardiovascular parameters: heart rate, diastolic and systolic blood pressure, pressure rate product, LV dp/dt max, LV dp/dt max/pd, LV dp/dt min, cardiac output, stroke volume, systemic vascular resistance and the ECG parameters (PQ-, QRS-, QT-, QTcBazett—(QTcB), QTcFridericia—(QTcF) and QTcVan de Water—(QTcVdW) interval duration and QT-dispersion. During the last 18 hours prior to the experiments, the dogs had no access to food. Water was available ad libitum. At the beginning of each experiment, control values of the various parameters were recorded for at least 30 min. Thereafter, 5 mg/kg of AF292 (n=4) or the corresponding volume of the solvent (n=4) was administered orally by gavage. The various haemodynamic parameters were recorded continuously for 4 hours thereafter.

[6] = target: T1, human M5 receptor (Homo sapiens, UniProt P08912); test: PI hydrolysis, human M5; assay type: cell-based
T1 construct: expressed in transfected cells

[7] = Cardiac electrophysiology and haemodynamics in instrumented awake dogs; assay type: in vivo, Beagle dog; conditions: 5 mg/kg orally, 4 hours
Experimental: as §1

[8] = target: T2, human M3 receptor (Homo sapiens, UniProt P20309); test: Arachidonic acid (AA) release, human M3; assay type: cell-based
T2 construct: expressed in transfected cells

[9] = target: M2 mAChR (Homo sapiens, UniProt P08172); test: Intracellular Ca ions in modified cell cultures, M2; assay type: cell-based; conditions: 10^−9-10^−3M
[10] = system: Adrenergic α1A, α1B, α2A, α2B, α2C, β1, β2; BZD peripheral; Clozapine; Dopamine D1, D2, D3; GABA A; Glutamate sites; Glycine; Histamine H1-H3; Nicotinic …; test: Selectivity binding panel for AF267B
[11] = Chronic oral toxicity up to 13 weeks, rat; assay type: in vivo, Wistar rat
[12] = Chronic oral toxicity up to 13 weeks, dog
[13] = system: β-catenin; test: β-catenin levels in rat hippocampal neurons; assay type: cell-based; conditions: 100 μM; Aβ1-40 5 μM
Experimental: (§2) This study was performed in rat hippocampal primary cell cultures using the methods described by Garrido J L et al. (FASEB J 2002; 16:1982).

[14] = system: Aβ; test: CSF and cortical Aβ in nbm-lesioned (hypocholinergic) rabbits; assay type: in vivo, rabbit; conditions: vs lesioned saline controls
Text: Twenty-eight female New Zealand White rabbits, about 2.5 kg each (young adults) were used. Twenty-one received lesions of the cholinergic nucleus basalis magnocellularis (nbm). The lesion was accomplished with unilateral i.c.v. injections of an immunotoxin consisting of the ribosomal toxin saporin conjugated to the monoclonal antibody MB20.4, which is directed against the low-affinity neurotophin receptor, p75. The ME20.4 antibody is made against monkey p 75 and also recognizes rabbit p75. The dose of immunotoxin was 32.4 μg in 12 μl; this was delivered to the right lateral ventricle 2 mm lateral to the bregma. Seven animals received i.c.v. injections of sterile normal saline (sham lesion). Animals which received the immunotoxin were divided into 3 groups of 7. […] Another group received physostigmine hemisalicylate in normal saline by s.c. osmotic pump at a daily dose of 3 mg/kg. The third group received twice-daily sterile saline s.c. injections. The animals which received a sham lesion were implanted with s.c. osmotic pumps filled with sterile normal saline. Animals were euthanized 4 weeks after surgery. […] Cerebrospinal fluid was taken from the cisterna magna of all animals at the time of sacrifice; the brain was removed and sliced coronally into 0.5 cm slices. […]

[15] = system: rat hippocampal neurons; test: Survival, morphology and apoptosis of rat hippocampal neurons exposed to Aβ; assay type: cell-based
Experimental: as §2

[16] = Morris water maze in AF64A-injected rats; assay type: in vivo, rat
Experimental: AF64A or saline-injected (6 months old) Sprague-Dawley rats were tested in the Morris Water Maze (MWM) task. The paradigm used assesses spatial learning abilities in a reference memory regimen, and involves training (days 1-4), transfer test (Probe trial—day 4, 3 min following the last training trial) and reversal test (day 5).
Drugs and PBS were administered once a day for 5 days before starting the behavioral testing, and then for the duration of the 5-day experiment, 30 min before testing.
The three measures, escape latency, path length and swimming speed were analyzed by MANOVA, followed by simple main effects contrast analysis.

[17] = rat, in vivo, po
Experimental: This calculation was based on the brain weight (2 gr) vs. total plasma volume (14 ml).

Sequence of M2 mAChR (P08172 whole entry): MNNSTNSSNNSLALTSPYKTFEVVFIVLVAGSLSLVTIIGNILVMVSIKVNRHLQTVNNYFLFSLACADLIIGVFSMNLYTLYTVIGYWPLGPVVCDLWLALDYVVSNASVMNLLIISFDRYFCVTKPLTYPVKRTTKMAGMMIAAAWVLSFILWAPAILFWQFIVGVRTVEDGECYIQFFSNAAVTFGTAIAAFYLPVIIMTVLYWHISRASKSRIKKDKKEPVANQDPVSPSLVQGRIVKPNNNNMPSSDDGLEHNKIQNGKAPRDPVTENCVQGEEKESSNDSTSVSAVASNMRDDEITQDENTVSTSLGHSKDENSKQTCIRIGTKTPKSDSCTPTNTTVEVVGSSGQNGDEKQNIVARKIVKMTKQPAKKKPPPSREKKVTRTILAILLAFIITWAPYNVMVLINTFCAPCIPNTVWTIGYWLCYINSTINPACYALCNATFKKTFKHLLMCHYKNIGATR
T2 sequence (P20309 whole entry): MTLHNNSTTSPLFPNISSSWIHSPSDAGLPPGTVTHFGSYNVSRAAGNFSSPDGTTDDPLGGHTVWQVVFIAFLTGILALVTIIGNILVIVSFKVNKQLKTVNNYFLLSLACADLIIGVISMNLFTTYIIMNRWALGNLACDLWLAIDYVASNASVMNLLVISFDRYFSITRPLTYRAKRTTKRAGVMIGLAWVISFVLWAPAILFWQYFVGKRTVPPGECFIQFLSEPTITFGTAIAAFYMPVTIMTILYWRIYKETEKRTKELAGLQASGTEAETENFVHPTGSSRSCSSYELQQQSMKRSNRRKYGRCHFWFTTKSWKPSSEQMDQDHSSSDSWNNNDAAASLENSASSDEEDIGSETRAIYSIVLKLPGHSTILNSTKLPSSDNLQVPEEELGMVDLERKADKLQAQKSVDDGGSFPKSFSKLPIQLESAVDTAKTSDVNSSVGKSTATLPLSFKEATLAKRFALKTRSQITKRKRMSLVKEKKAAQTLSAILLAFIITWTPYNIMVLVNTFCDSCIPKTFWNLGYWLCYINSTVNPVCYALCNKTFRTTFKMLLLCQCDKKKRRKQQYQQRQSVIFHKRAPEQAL
T1 sequence (P08912 whole entry): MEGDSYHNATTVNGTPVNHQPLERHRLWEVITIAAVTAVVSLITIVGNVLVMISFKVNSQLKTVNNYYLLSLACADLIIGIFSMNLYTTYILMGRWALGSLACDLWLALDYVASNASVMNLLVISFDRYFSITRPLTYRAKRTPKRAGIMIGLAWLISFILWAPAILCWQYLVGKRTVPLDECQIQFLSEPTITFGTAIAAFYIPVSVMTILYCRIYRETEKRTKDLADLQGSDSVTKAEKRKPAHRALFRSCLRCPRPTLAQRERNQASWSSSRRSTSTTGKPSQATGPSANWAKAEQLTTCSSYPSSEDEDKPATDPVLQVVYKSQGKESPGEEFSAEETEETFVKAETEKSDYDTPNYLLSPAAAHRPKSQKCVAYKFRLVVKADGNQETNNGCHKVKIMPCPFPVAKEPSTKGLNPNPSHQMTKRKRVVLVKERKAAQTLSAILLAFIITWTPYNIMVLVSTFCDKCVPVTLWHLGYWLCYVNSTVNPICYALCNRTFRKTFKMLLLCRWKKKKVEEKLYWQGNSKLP

With `CC1=NCC2(CCN(C)CC2)S1` [AF150(S), 2,8-Dimethyl-1-thia-3,8-diaza-spiro[4.5]dec-2-ene] the astrogliosis and inflammation [1] was “decreased astrogliosis and inflammation”, the “cognitive and behavioral impairments” value [1] was “improved the cognitive and behavioral impairments” and the “hyperphosphorylated τ proteins, neurons with aggregated τ, paired helical filaments” value [1] was “decreased hyperphosphorylated τ proteins”. The “Stability in the paraffin oil formulation” value ([2]; 40° C., two months) was “stable”, the Color change ([2]; samples containing 0.5% w/w tocopherol) was “color was not developed” and the Color change ([2]; samples without tocopherol) was “slight yellow color”. For the same molecule, the “inhibition of ApoE production” value [3] was “to a lesser extent” and the “working memory performance (REL and RPL)” value [4] was “significantly improved working memory performance”.

With `CC[C@@H]1SC2(CCNCC2)NC1=O` [AF292, (S)-2-Ethyl-1-thia-4,8-diaza-spiro[4.5]decan-3-one] the contractile force [5] was “no significant effect”, the contractile rate ([5]; vs vehicle group) was “tended to slightly reduce” and the “PI turnover, agonist activity” value [6] was “PI, AA: M5 mAChR - no effect as agonist”. The “hemodynamic or ECG parameters” value [7] was “no statistically significant and relevant effect”, the “AA release, agonist activity” value [8] was “inactive as an agonist” and the “agonist activity at M2 mAChR” value [9] was “inactive as an agonist; also recorded: M2 mAChR - no effects as agonist”.

With `CC[C@@H]1SC2(CCN(C)CC2)NC1=O` [AF267B, (S)-2-ethyl-8-methyl-1-thia-4,8-diaza-spiro[4.5]decan-3-one] the “binding to other receptors and enzymes” value [10] was “no binding at all”, the “dose at which (muscarinic) effects are seen” value [11] was greater than 40 mg/kg and the “ECG (heart rate, P wave, P-Q, QRS, QT)” value ([12]; beagle dogs, oral, up to 13 weeks) was “no changes in the ECG”. The “dose at which (muscarinic) effects are seen” value ([12]; dog) was greater than 9 mg/kg, the “no-adverse-effect-level (NOAEL)” value ([12]; dog, po, up to 13 weeks) was 6 to 9 mg/kg/day and the “Aβ1-40-induced degradation of soluble β-catenin” value [13] was “prevented”. For the same molecule, the “CSF sAPPα bands” value [14] was “no significant difference”, the “CSF Aβ (4 kDa band)” value ([14]; p=0.05) was “noticeable decrease” and the “survival and morphology of hippocampal neurons” value ([15]; 0.5-50 μM, compound alone) was “does not affect the survival and morphology”. The “neurites / dendritic shrinkage induced by Aβ1-40” value ([15]; blocked by pirenzepine 10 nM) was “protected the neurons”, the reversal test ([16]; AF64A rats, 1 mg/kg) was “tendency for improvement” and the “training, escape latency” value ([16]; AF64A rats, 1 mg/kg) was “tendency for improvement”. The reversal test ([16]; AF64A rats, 3 mg/kg) was “tendency for impairment”, the training performance ([16]; AF64A rats, 3 mg/kg) was “tended to impair performance” and the “learning (training)” value ([16]; AF64A rats, 0.3, 1, 3 mg/kg po) was “no significant effect on learning”. The “probe trial, escape latency” value ([16]; AF64A rats, all doses) was “complete spatial bias”, the “% of the compound found in the brain (Cmax brain/Cmax plasma)” value ([17]; female) was 16% and the “% of the compound found in the brain (Cmax brain/Cmax plasma)” value ([17]; male) was 25%.
